Assays:
GFAP = GFAP protein level in brain, capillary-based immunoassay; type: in vivo, mouse; conditions: aged 3xTg-AD female mice; TP-064 30 mg/kg, 7 days, IP or PRMT4-AAV
Protocol: Leukocytes velocity measurements were performed by linescans (512 lines/sec). *p<0.05 compared to aged 3xTg-AD male or C57 female evaluated by unpaired t-test. FIGS. 18A and 18B are capillary-based immunoassay and associated graphs showing PRMT4 inhibitor (TP-064) or AAV knockdown of PRMT4 reduced GFAP levels in aged 3xTg-AD female mice. Glial fibrillary acidic protein (GFAP, 55 kDa) was increased in aged 3xTg-AD female mice v. C57, which indicates neuroinflammation, but reversed with TP-064 (30 mg/kg, 7 days, IP) or PRMT4-AAV treatment in cortex, shown in FIG. 18A, and hippocampus, shown in FIG. 18B. Protein level was measured by capillary-based immunoassay and normalized to total protein. *p<0.05 as compared to C57, #p<0.05 v. 3xTg-AD evaluated by one-way ANOVA with Tukey's post-hoc analyses.
Capillary-phoresis immunoassay via ProteinSimple®: Quantification of all protein targets was achieved using Simple Western analysis in a Jess™ apparatus per the manufacturer's protocol (ProteinSimple, Bio-techne, Minneapolis, MN). […] Following homogenization and centrifugation (10,000×g, 5 min, 4° C.), protein concentration was determined in tissue protein supernatant samples using DC Protein Assay (Cat. No. 5000112, Bio-Rad Laboratories, Hercules, California) according to manufacturer instructions. […]

[1] = tested on: amyloid precursor protein (APP); experiment: Amyloid precursor protein level in brain, capillary-phoresis; type: in vivo, mouse; conditions: treated 3xTg-AD mice; controls = 100%; not significantly changed vs untreated 3xTg
Text: Capillary-phoresis immunoassay via ProteinSimple®: Quantification of all protein targets was achieved using Simple Western analysis in a Jess™ apparatus per the manufacturer's protocol (ProteinSimple, Bio-techne, Minneapolis, MN). Protein was extracted from dissected tissue in an extraction buffer consisting of T-PER® Tissue Protein Extraction Reagent (Cat. No. 78510, Thermo Fischer Scientific, Waltham, MA) and Halt™ Protease Inhibitor Cocktail (Cat. No. 87785, Thermo Fischer Scientific, Waltham, MA). Following homogenization and centrifugation (10,000×g, 5 min, 4° C.), protein concentration was determined in tissue protein supernatant samples using DC Protein Assay (Cat. No. 5000112, Bio-Rad Laboratories, Hercules, California) according to manufacturer instructions. […] Antibody diluent (ProteinSimple, Bio-techne, Minneapolis, MN) was used for all antibody dilutions as follows: PRMT4 (1:50, RRID: AB_2068436), PRMT6 (1:100, Cell Signaling Technology cat. 14641), eNOS (1:200, RRID: AB_10850618), nNOS (1:100, RRID: AB_2152488), iNOS (1:100, RRID: AB_10000625), DDAH2 (1:50, RRID: AB_2640442) Antibodies were detected using HRP-conjugated secondary anti-rabbit, and -mouse. Relative protein levels were calculated by measuring the area under the peak of a chemiluminescent chromatogram and normalized to total capillary chemiluminescence for a given sample. […]

CNCCN1CCC(c2cc(CN(C)C(=O)c3cccc(Oc4ccccc4)c3)ccn2)CC1 [TP-064, N-Methyl-N-((2-(1-(2-(methylamino)ethyl)piperidin-4-yl)pyridin-4-yl)methyl)-3-phenoxybenzamide]
GFAP level in cortex (GFAP): reduced | GFAP level in hippocampus (GFAP): reduced | APP level in cortex [1]: 801%±36.3 | APP level in hippocampus [1]: 1040%±31.1

From patent US20240238268A1, “TREATMENTS AND METHODS FOR TREATING ALZHEIMER'S DISEASE” (Board of Supervisors of Louisiana State University and …, priority 2021, published 2024)
